# Reference: patent publication US20240262842A1, “SMALL MOLECULE INHIBITORS OF KRAS G12C MUTANT” (Merck Sharp & Dohme LLC, priority 2021, published 2024)
# Where two headings read alike, the source gives them in different places.
# What was measured:
# [1] = molecular target: T1, interaction between GMPPNP-bound recombinant K-Ras4B G12C mutant protein and cRAF RAS-binding domain (cRAF-RBD) (Homo sapiens, UniProt P01116, G12C); assay: Inhibitory activity on interaction between KRAS G12C and cRAF (Alpha technology)
# T1 construct: His-tag (N)
# T1 sequence (P01116 with tags, fused parts or gaps isoform P01116-2 G12C): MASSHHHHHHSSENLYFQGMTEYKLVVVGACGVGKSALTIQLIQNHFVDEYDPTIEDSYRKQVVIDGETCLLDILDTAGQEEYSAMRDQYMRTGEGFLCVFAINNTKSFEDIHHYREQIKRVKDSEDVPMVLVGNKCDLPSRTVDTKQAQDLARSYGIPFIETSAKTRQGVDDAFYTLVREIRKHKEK
# Protocol: Interaction between recombinant K-Ras4B G12C mutant protein (amino acids 1-169, SEQ ID NO:2) and cRAF RAS-binding domain (cRAF-RBD, amino acids 50-132, Jena Biosciences GmbH) was measured using Alpha technology (PerkinElmer Inc.).
# Recombinant KRAS G12C protein with an N-terminal His-tag was expressed in E. coli and purified by affinity chromatography. To prepare GTP-bound form and GDP-bound form of KRAS G12C protein, 50 μM KRAS G12C protein was incubated with 1 mM GMPPNP (Guanosine-5′-[(β,γ)-imido]triphosphate, Tetralithium salt) (Jena Bioscience GmbH) and 1 mM GDP, respectively, in a loading buffer (20 mM Tris-HCl (pH 7.5), 50 mM NaCl, 1 mM DTT and 2.5 mM EDTA) for 1 hour on ice. After the incubation, MgCl2 was added to a final concentration of 10 mM, followed by incubation at room temperature for 30 minutes. The mixture was allowed to pass through a NAP-5 column to remove free nucleotides and purified, and the resultant nucleotide-bound KRAS G12C protein was used for compound evaluation.
# For the measurement of the inhibitory activity of compounds on interaction between KRAS G12C and cRAF-RBD, GMPPNP-bound KRAS G12C protein was incubated with various concentrations of compound in a reaction buffer (20 mM Tris-HCl (pH 7.5), 100 mM NaCl, 1 mM MgCl2, 1 mM TCEP, 0.1% Tween 20) at 25° C. for 1 hour. After the incubation, recombinant cRAF-RBD and Alpha detection reagents were added and incubated at room temperature for 1.5 hours for binding. Interaction of KRAS G12C and cRAF-RBD was monitored by measuring Alpha signal. Inhibition % was calculated using the signal from the reaction without test compound (DMSO control) as 0% inhibition and the signal from the reaction using GDP-bound KRAS G12C in place of GMPPNP-bound KRAS G12C as 100% inhibition. IC50 values were calculated from dose titration curve using curve fitting by XLfit software (IDBS).
# MIA PaCa-2 cells = assay: Growth inhibition activity on KRAS-G12C mutant cell line (CellTiter-Glo 3D); format: cell-based, human; settings: MIA PaCa-2, 3-day culture with compound
# Protocol: MIA PaCa-2 cells (given by Sumitomo Dainippon Pharma Co., Ltd.), which are a KRAS-G12C mutant human pancreas cancer cell line, were suspended in a 10% fetal bovine serum-containing RPMI1640 medium (manufactured by Fujifilm Wako Pure Chemical Corporation). The cell suspension was seeded into each well of a 384-well U bottom microplate and cultured in an incubator containing 5% CO2 gas at 37° C. for 1 day. The compounds obtained in the “Preparation of Compounds” section were used as test compounds and were dissolved in DMSO, respectively, and each test compound was diluted with DMSO to give a concentration 500 times the final concentration. The resultant solution of the test compound in DMSO was diluted with the medium used for suspending cells and added to each well of the cell-culture plate to give a DMSO final concentration of 0.2%, followed by culture in an incubator containing 5% CO2 gas at 37° C. for another 3 days. The cell count after 3-day culture in the presence of the test compound was measured using CellTiter-Glo 3D Reagent (manufactured by Promega Corporation). All wells were added with CellTiter-Glo 3D Reagent and mixed for 10 minutes. 30 minutes after mixing, luminescence was measured by a plate reader. The growth inhibition rate was calculated from the following equation, and the concentration of the test compound at which 50% inhibition was achieved (IC50 (nM)) was determined.
# [formula] • T: the emission intensity in a well into which a test compound was added. • C: the emission intensity in a well into which a test compound was not added.
# [2] = GMPPNP-bound KRAS G12C incubated with compound 25° C. 1 hour, Table 2-1, read-out: IC50
# [3] = Homo sapiens, MIA PaCa-2, 72 h, Table 3-1
# [4] = IC50, GMPPNP-bound KRAS G12C incubated with compound 25° C. 1 hour, Table 2
# [5] = GMPPNP-bound KRAS G12C incubated with compound 25° C. 1 hour, Table 2, read-out: IC50
# [6] = Homo sapiens, MIA PaCa-2, 72 h, Table 3
SMILES,"IC50 [1, 2]",IC50 (MIA PaCa-2 cells; [3]),also measured
"COCc1nc2c3c(c(OC)cc2n1C)-c1cccn2c(C(=O)c4cc(F)c(NC(=O)/C=C/CN[C@H]5CCOC5)c(F)c4)c(C)c(c12)CCN3C (single isomer, unassigned) [Example 231]",101 nM,73.4 nM,–
"CN1CCc2cc(C(=O)c3cc(F)c(NC(=O)/C=C/CN4C[C@@H]5C[C@H]4CO5)c(F)c3)n3cccc(c23)-c2c(C(F)(F)F)cc3c(ncn3C)c21 [Example 208, (E)-4-((1S,4S)-2-oxa-5-azabicyclo[2.2.1]heptan-5-yl)-N-(4-(9,12-dimeth-yl-7-(trifluoromethyl)-9,12,13,14-tetrahydro-imidazo[4″,5″:5′,6′]benzo-[1′,2′:2,3]azocino[4,5,6-hi]indolizine-2-carbonyl)-2,6-difluorophenyl)but-2-enamide]",35.4 nM,11.4 nM,–
"CO[C@H]1CC[C@H](NC/C=C/C(=O)Nc2c(F)cc(C(=O)c3cn4c5c(cccc35)-c3c(C)cc5c(nc(C)n5C)c3OCCC4)cc2F)CC1 (single isomer, unassigned) [Example 15-1, (E)-N-(2,6-difluoro-4-(6,8,9-trimethyl-13,14-dihydro-8H,12H-imidazo[4″,5″:3′,4′]benzo[1′,2″:8,9][1,5]oxazonino[7,6,5-hi]indole-2-carbonyl)phenyl)-4-(((1r,4r)-4-methoxycyclohexyl)amino)but-2-enamide]",–,–,"IC50 [1, 4]: 3900 nM; IC50 (MIA PaCa-2 cells; Table 3): 2700 nM"
"Cc1nc2c3c(c(C(F)(F)F)cc2n1C)-c1cccn2c(C(=O)c4cc(F)c(NC(=O)/C=C/CNC5(CF)COC5)c(F)c4)cc(c12)CCO3 [Example 50, (E)-N-(4-(9,10-dimethyl-7-(trifluoromethyl)-13,14-dihydro-9H-imidazo[4″,5″:5′,6′]benzo[1′,2′:2,3]oxocino[4,5,6-hi]indolizine-2-carbonyl)-2,6-difluorophenyl)-4-((3-(fluoromethyl)oxetan-3-yl)amino)but-2-enamide]",–,–,"IC50 [1, 5]: 780 nM"
"CO[C@H]1CC[C@H](NC/C=C/C(=O)Nc2c(F)cc(C(=O)c3cn4c5c(cccc35)-c3c(ccc(C#N)c3Cl)OCC4)cc2F)CC1 [Example 9, (E)-N-(4-(10-chloro-9-cyano-4,5-dihydrobenzo[7,8][1:4]oxazocino[6,5,4-hi]indole-1-9 carbonyl)-2,6-difluorophenyl)-4-(((1,4r)-4-methoxycyclohexyl)amino)but-2-enamide]",–,–,"IC50 [1, 4]: 1500 nM; IC50 (MIA PaCa-2 cells; [6]): 760 nM"
"Cn1cnc2c3c(c(C(F)(F)F)cc21)-c1cccn2c(C(=O)c4cc(F)c(NC(=O)/C=C/CN5CC[C@@H](O)C5)c(F)c4)cc(c12)CCO3 [Example 151, (R,E)-N-(2,6-difluoro-4-(9-methyl-7-(trifluoro-methyl)-13,14-dihydro-9H-imidazo[4″,5″:5′,6′]-benzo[1′,2′:2,3]oxocino-[4,5,6-hi]indolizine-2-carbonyl)phenyl)-4-(3-hydroxypyrrolidin-1-yl)-but-2-enamide]",15.5 nM,33.9 nM,–
Cc1nc2c3c(c(C(F)(F)F)cc2n1C)-c1cccn2c(C(=O)c4cc(F)c(NC(=O)/C=C/CNC(C)(C)C)c(F)c4)cc(c12)CCO3 [Example 33],–,–,"IC50 [1, 5]: 14 nM; IC50 (MIA PaCa-2 cells; [6]): 5 nM"
"CO[C@H]1CC[C@H](NC/C=C/C(=O)Nc2ccc(C(=O)c3cc4c5c(cccn35)-c3c(C(F)(F)F)cc5c(nc(C)n5C)c3OCC4)nc2)CC1 [Example 59, (E)-N-(6-(9,10-dimethyl-7-(trifluoromethyl)-13,14-dihydro-9H-imidazo-[4″,5″:5′,6′]benzo[1′,2′: 2,3]oxocino[4,5,6-hi]-indolizine-2-carbonyl)-pyridin-3-yl)-4-(((1r,4r)-4-methoxycyclohexyl)-amino)but-2-enamide]",27.6 nM,19.8 nM,–
"Cn1cnc2c3c(c(C(F)(F)F)cc21)-c1cccn2c(C(=O)c4cc(F)c(NC(=O)/C=C/CN5CC6CC5CCO6)c(F)c4)cc(c12)CCO3 (centres unmarked) [Example 229, (E)-4-(2-oxa-6-azabicyclo-[3.2.1]octan-6-yl)-N-(2,6-difluoro-4-(9-methyl-7-(trifluoromethyl)-13,14-dihydro-9H-imidazo-[4″,5″:5′,6′]benzo[1′,2′: 2,3]oxocino[4,5,6-hi]-indolizine-2-carbonyl)-phenyl)but-2-enamide]",12.7 nM,11.3 nM,–
"Cn1cnc2c3c(c(C(F)(F)F)cc21)-c1cccc2c(C(=O)c4cc(F)c(NC(=O)/C=C/CNC5(C)COC5)c(F)c4)cn(c12)CCO3 [Example 80, (E)-N-(2,6-difluoro-4-(8-methyl-6-(trifluorometh-yl)-12,13-dihydro-8H-imidazo[4″,5″:3′,4′]benzo-[1′,2′:7,8][1,4]oxazocino-[6,5,4-hi]indole-2-carbon-yl)phenyl)-4-((3-methyl-oxetan-3-yl)amino)but-2-enamide]",–,22.2 nM,"IC50 ([1]; IC50, GMPPNP-bound KRAS G12C incubated with compound 25° C. 1 hour, Table 2-1): 28.3 nM"
"Cn1cnc2c3c(c(C(F)(F)F)cc21)-c1cccn2c(C(=O)c4cc(F)c(NC(=O)C=CCNC5CCOC5)c(F)c4)cc(c12)CCO3 [Example 120, (S,E)-N-(2,6-difluoro-4-(9-methyl-7-(trifluoromethyl)-13,14-dihydro-9H-imidazo[4″,5″:5′,6′]benzo[1′,2′:2,3]oxocino[4,5,6-bi]indolizine-2-carbonyl)phenyl)-4-((tetrahydrofuran-3-yl)amino)but-2-enamide]",5.59 nM,6.52 nM,–
"CO[C@H]1CC[C@H](NC/C=C/C(=O)Nc2c(F)cc(C(=O)c3cn4c5c(cccc35)-c3c(C)cc5c(nc(C)n5C)c3OCC3(CC3)C4)cc2F)CC1 (single isomer, unassigned) [Example 21-1, (E)-N-(2,6-difluoro-4-(6′,8′,9′-trimethyl-8′H, 12′H,14′H-spiro[cyclopropane-1,13-imidazo[4″,5″:3′,4′]benzo[1′,2:8,9][1,5]oxazonino[7,6,5-hi]indole]-2′-carbonyl)phenyl)-4-(((1r,4t)-4-methoxycyclohexyl)amino)but-2-enamide]",–,–,"IC50 [1, 4]: 44 nM; IC50 (MIA PaCa-2 cells; Table 3): 22 nM"
"CO[C@H]1CC[C@H](NC/C=C/C(=O)Nc2c(F)cc(C(=O)c3cn4c5c(cccc35)-c3c(cc(N5CCCC5=O)cc3C(F)(F)F)OCC4)cc2F)CC1 (single isomer, unassigned) [Example 5-1, (E)-N-(2,6-difluoro-4-(8-(2-oxopyrrolidin-1-yl)-10-(trifluoromethyl)-4,5-dihydrobenzo[7,8][1.4]oxazocino[6,5,4-hi]indole-1-carbonyl)phenyl)-4-(((1r,4t)-4-methoxycyclohexyl)amino)but-2-enamide]",–,–,"IC50 [1, 4]: 53 nM; IC50 (MIA PaCa-2 cells; Table 3): 14 nM"
"C=C1Cc2cc(C(=O)c3cc(F)c(NC(=O)/C=C/CN[C@H]4CC[C@H](OC)CC4)c(F)c3)n3cccc(c23)-c2c(C)cc3c(nc(C)n3C)c21 [Example 48, (E)-N-(2,6-difluoro-4-(2,3,5-trimethyl-13-methylene-12,13-dihydro-3H-imidazo[4″,5″:5′,6′]benzo[1′,2′:6,7]cyclohepta[1,2,3-hi]indolizine-10-carbonyl)phenyl)-4-(((1r,4r)-4-methoxycyclohexyl)amino)but-2-enamide]",–,–,"IC50 [1, 5]: 93 nM"
